Measured values taken from ChEMBL document CHEMBL1909046, “DrugMatrix in vitro pharmacology data”.

Assays:
[1] = target: T1, Type-2 angiotensin II receptor (Homo sapiens, UniProt P50052); type: cell-based; details: cho-k1; also: in other assays of this panel Not Active means under 50% inhibition at 10 µM
T1 sequence (P50052 whole entry): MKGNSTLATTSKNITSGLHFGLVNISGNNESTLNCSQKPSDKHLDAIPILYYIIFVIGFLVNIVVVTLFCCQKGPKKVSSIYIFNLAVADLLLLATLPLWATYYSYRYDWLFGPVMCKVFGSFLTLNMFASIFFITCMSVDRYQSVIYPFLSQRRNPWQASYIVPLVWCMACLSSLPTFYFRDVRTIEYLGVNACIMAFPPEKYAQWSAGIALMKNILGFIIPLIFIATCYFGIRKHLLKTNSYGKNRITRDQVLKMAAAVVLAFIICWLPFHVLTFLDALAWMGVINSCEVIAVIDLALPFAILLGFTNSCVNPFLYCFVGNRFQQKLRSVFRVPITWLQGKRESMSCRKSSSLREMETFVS

[2] = DRUGMATRIX: ATPase, Na+/K+ enzyme inhibition (substrate: ATP); type: tissue-based, Sus scrofa, Heart; details: Not Active = under 50% inhibition at 10 µM
Substance-K receptor = target: T2, Substance-K receptor (Homo sapiens, UniProt P21452); type: cell membranes, CHO, Membrane; also: in other assays of this panel Not Active means under 50% inhibition at 10 µM
T2 sequence (P21452 whole entry): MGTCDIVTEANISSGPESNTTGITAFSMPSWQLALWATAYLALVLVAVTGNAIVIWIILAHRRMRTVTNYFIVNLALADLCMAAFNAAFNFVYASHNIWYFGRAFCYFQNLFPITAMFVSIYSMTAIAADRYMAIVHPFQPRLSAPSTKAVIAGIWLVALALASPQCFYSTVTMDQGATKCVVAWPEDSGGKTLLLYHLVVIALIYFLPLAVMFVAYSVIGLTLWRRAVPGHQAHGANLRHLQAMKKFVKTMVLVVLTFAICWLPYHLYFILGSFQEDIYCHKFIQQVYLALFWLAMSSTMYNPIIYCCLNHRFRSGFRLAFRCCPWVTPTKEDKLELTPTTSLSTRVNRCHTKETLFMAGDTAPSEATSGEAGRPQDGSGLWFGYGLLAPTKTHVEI

D(4) dopamine receptor = target: T3, D(4) dopamine receptor (Homo sapiens, UniProt P21917); assay: DRUGMATRIX: Dopamine D4.2 radioligand binding (ligand: [3H] Spiperone); type: cell membranes, CHO-K1, Membrane; details: cho-k1; Not Active = under 50% inhibition at 10 µM
T3 sequence (P21917 whole entry): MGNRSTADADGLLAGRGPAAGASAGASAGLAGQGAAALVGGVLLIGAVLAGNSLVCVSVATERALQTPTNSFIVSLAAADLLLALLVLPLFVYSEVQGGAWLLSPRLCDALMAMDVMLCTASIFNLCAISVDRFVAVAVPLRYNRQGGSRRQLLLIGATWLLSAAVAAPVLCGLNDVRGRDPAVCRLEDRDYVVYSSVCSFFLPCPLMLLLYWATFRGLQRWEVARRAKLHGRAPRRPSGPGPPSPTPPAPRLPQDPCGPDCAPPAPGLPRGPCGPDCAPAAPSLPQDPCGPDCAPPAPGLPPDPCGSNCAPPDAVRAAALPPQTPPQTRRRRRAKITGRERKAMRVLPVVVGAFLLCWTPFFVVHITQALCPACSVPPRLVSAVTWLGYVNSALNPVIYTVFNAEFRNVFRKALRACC

[3] = target: T4, 3-hydroxy-3-methylglutaryl-coenzyme A reductase (Homo sapiens, UniProt P04035); design: species or system Escherichia coli;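 also: enzyme inhibition assay of HMG-CoA reductase using radiolabeled [14C]HMG-CoA as substrate; in other assays of this panel Not Active means under 50% inhibition at 10 µM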
T4 sequence (P04035 whole entry): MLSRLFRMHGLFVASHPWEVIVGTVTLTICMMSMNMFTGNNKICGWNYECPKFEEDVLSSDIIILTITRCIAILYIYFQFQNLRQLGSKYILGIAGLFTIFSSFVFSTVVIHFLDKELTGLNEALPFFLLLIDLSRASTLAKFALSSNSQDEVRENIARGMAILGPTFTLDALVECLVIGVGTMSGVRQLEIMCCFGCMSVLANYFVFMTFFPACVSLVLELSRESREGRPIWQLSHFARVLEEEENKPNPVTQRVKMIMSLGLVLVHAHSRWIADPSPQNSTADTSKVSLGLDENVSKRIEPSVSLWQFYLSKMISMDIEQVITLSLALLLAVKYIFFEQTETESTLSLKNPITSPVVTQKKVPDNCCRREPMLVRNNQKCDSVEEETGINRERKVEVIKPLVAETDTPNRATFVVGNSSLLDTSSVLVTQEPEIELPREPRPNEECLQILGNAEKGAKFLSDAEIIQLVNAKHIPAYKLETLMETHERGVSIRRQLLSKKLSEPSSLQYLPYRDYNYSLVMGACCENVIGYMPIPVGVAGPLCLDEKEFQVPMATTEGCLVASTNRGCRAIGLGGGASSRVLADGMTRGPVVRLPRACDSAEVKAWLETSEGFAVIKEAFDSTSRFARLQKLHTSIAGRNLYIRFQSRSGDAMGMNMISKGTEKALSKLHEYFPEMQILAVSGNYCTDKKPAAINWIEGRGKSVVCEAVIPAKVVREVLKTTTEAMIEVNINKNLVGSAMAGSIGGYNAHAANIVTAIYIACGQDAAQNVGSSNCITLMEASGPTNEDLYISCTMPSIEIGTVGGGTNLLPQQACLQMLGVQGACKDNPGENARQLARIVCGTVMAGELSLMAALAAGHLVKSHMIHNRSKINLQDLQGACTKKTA

Mu-type opioid receptor = Mu-type opioid receptor (Homo sapiens, UniProt P35372); assay: DRUGMATRIX: Opiate mu (OP3, MOP) radioligand binding (ligand: [3H] Diprenorphine); type: cell membranes, CHO-K1, Membrane; details: cho-k1; Not Active = under 50% inhibition at 10 µM
Mu-type opioid receptor, sequence (P35372 whole entry): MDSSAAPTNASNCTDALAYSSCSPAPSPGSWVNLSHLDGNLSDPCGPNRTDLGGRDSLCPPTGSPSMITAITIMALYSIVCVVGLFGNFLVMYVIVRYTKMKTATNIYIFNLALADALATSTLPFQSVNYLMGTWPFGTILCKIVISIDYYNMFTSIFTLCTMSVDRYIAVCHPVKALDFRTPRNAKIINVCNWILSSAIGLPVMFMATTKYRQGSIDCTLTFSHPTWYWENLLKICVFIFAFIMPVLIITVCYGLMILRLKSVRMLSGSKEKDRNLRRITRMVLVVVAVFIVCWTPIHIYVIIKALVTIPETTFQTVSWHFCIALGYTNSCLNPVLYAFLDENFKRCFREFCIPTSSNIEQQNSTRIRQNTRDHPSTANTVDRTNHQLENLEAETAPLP

[4] = DRUGMATRIX: Phosphodiesterase PDE3 enzyme inhibition (substrate: [3H]cAMP + cAMP); type: tissue-based, Homo sapiens; details: platelet, Not Active = under 50% inhibition at 10 µM
Cytochrome P450 2C19 = Cytochrome P450 2C19 (Homo sapiens, UniProt P33261); details: bti-tn-5b1-4; also: in other assays of this panel Not Active means under 50% inhibition at 10 µM
Cytochrome P450 2C19, sequence (P33261 whole entry): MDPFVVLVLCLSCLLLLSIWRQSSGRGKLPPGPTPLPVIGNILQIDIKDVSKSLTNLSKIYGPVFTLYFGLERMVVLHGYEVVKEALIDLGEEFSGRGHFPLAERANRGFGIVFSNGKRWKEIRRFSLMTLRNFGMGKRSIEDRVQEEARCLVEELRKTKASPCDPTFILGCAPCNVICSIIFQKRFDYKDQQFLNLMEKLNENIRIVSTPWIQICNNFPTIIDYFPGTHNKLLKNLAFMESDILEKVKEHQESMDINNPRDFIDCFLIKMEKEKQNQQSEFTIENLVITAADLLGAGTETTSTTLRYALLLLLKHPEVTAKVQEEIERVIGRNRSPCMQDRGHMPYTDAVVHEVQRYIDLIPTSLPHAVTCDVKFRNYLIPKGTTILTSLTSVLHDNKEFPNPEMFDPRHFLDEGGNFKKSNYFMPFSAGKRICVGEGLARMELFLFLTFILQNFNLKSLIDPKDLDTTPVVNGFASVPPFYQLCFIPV

Compound | IC50 [1] | IC50 [2] | Ki [2] | IC50 (Substance-K receptor; cho) | IC50 (D(4) dopamine receptor) | IC50 [3] | IC50 (Mu-type opioid receptor) | IC50 [4] | Ki [4] | Ki [1] | IC50 ([2]; read-out: IC50) [µM] | Ki (Substance-K receptor; cho) | Ki (D(4) dopamine receptor) | Ki [3] | IC50 ([4]; read-out: IC50) [µM] | IC50 (Cytochrome P450 2C19) | Ki (Cytochrome P450 2C19) | IC50 (Substance-K receptor; read-out: IC50) [µM] | Ki (Substance-K receptor; read-out: Ki) [µM]
Cn1cnc([N+](=O)[O-])c1Sc1ncnc2nc[nH]c12 [AZATHIOPRINE] | Not Active | Not Active | Not Active | Not Active | Not Active | Not Active | Not Active | Not Active | Not Active |  |  |  |  |  |  |  |  |  | 
CISPLATIN | Not Active |  |  | Not Active | Not Active | Not Active |  |  |  | Not Active | 9.43 | Not Active | Not Active | Not Active | 46.3 | Not Active | Not Active |  | 
GOLD SODIUM THIOMALATE | Not Active | Not Active | Not Active | Not Active | Not Active | Not Active |  | Not Active | Not Active | Not Active |  | Not Active | Not Active | Not Active |  | Not Active | Not Active |  | 
OXALIPLATIN | Not Active | Not Active | Not Active | Not Active | Not Active | Not Active |  | Not Active | Not Active | Not Active |  | Not Active | Not Active | Not Active |  | Not Active | Not Active |  | 
CARBOPLATIN | Not Active | Not Active | Not Active | Not Active | Not Active | Not Active |  | Not Active | Not Active | Not Active |  | Not Active | Not Active | Not Active |  | Not Active | Not Active |  | 
O=P1(NCCCl)OCCCN1CCCl (stereo not given) [IFOSFAMIDE] | Not Active | Not Active | Not Active | Not Active | Not Active | Not Active | Not Active | Not Active | Not Active |  |  |  |  |  |  |  |  |  | 
CC(C)NC[C@H](O)COc1cccc2[nH]ccc12 | Not Active | Not Active | Not Active | Not Active | Not Active | Not Active | Not Active | Not Active | Not Active |  |  |  |  |  |  |  |  |  | 
N#C[C@H](O[C@@H]1O[C@H](CO[C@@H]2O[C@H](CO)[C@@H](O)[C@H](O)[C@H]2O)[C@@H](O)[C@H](O)[C@H]1O)c1ccccc1 [AMYGDALIN] | Not Active | Not Active | Not Active | Not Active | Not Active | Not Active |  | Not Active | Not Active |  |  |  |  |  |  | Not Active | Not Active |  | 
CN1C[C@H](C(=O)N[C@]2(C)O[C@@]3(O)[C@@H]4CCCN4C(=O)[C@H](Cc4ccccc4)N3C2=O)C=C2c3cccc4[nH]cc(c34)C[C@H]21 [ERGOTAMINE] | Not Active | Not Active | Not Active | Not Active | Not Active | Not Active |  | Not Active | Not Active |  |  |  |  |  |  | Not Active | Not Active |  | 
C=C(C)[C@@H]1[C@H]2OC(=O)[C@@H]1[C@]1(O)C[C@H]3O[C@]34C(=O)O[C@H]2[C@]14C [PICROTOXININ] | Not Active | Not Active | Not Active | Not Active | Not Active | Not Active |  | Not Active | Not Active |  |  |  |  |  |  |  |  |  | 
c1ccc2c(c1)cc1ccc3cccc4ccc2c1c34 | Not Active | Not Active | Not Active | Not Active | Not Active | Not Active |  | Not Active | Not Active |  |  |  |  |  |  | Not Active | Not Active |  | 
C=C1[C@@H]2CCC3[C@@](CC[C@@H]4[C@H](C(=O)O)C[C@@H](O[C@@H]5O[C@H](CO)[C@@H](OS(=O)(=O)[O-])[C@H](OS(=O)(=O)[O-])[C@H]5OC(=O)CC(C)C)C[C@@]34C)(C2)[C@@H]1O.[K+].[K+] (stereo not given in full) [ATRACTYLOSIDE] | Not Active | Not Active | Not Active | Not Active | Not Active | Not Active |  | Not Active | Not Active |  |  |  |  |  |  | Not Active | Not Active |  | 
CCCCCCCCCc1ccc(O)cc1 [4-NONYLPHENOL] | Not Active | Not Active | Not Active |  | Not Active | Not Active |  | Not Active | Not Active |  |  |  |  |  |  | Not Active | Not Active | 4.51 | 1.51
CCCC[C@@H](CC)COC(=O)c1ccccc1C(=O)OC[C@@H](CC)CCCC [BIS(2-ETHYLHEXYL)PHTHALATE] | Not Active | Not Active | Not Active | Not Active | Not Active | Not Active |  | Not Active | Not Active |  |  |  |  |  |  | Not Active | Not Active |  | 
